Laboratory results reported in patent publication US8895504B2, “Amylin derivatives” (priority 2008, dated 2014).
pEC50: −log10 of the molar value. *1 amine or outer side, *2 acyl side, *3 side chain or, on linkers, in order; H or OH if unused. Where a SMILES comes first, the peptide text is derived from it. Bridges are numbered along the chain shown (N, C = ends). The star is where a group is joined. C20 diacid = O=C(O)CCCCCCCCCCCCCCCCCCC(=O)*; γGlu = O=C(O)[C@H](CCC(=O)[*:2])N[*:1]; AEEA = NCCOCCOCC(=O)O

Experiments:
[1] = target: T1, Amylin 3(a) receptor (human calcitonin receptor (CTa) and RAMP-3) (Homo sapiens, UniProt O60896+P30988); assay: Luciferase assay (III), BHK Amylin 3(a)//CRE-luc cells; type: cell-based; settings: BHK cells with Amylin 3(a) receptor and CRE luciferase reporter, 4 hours incubation; read-out: Potency Luciferase
T1 construct: expressed in transfected cells; host or cells: BHK570 cells, stably transfected with a CRE-luciferase reporter
In short: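 BHK570 cells stably expressing CTa, RAMP-3 and a CRE-luciferase reporter, seeded at about 20,000 cells/well and grown overnight. Cells were exposed to standard or sample for 4 h at 37° C in phenol red-free DMEM with 10% FBS and 10 mM Hepes, pH 7,4. Luminescence was read after 30 min LucLite at room temperature.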

[2] = Assay (V) PK - determination of T½ in mini-pig; type: in vivo; settings: minipig, sc; terminal plasma half-life, subcutaneous, approx 2 nmol/kg, male Göttingen mini-pigs
Experimental: Assay (V) PK—Determination OF T½ in Mini-Pig
T½ is the terminal half-life=ln 2/λz of a compound in plasma. λz is the first order rate constant associated with the terminal (log-linear) portion of the plasma concentration-time curve and is estimated by linear regression of time vs. log concentration.
T½ values of the amylin analogues of the invention is determined by pharmacokinetic studies in male Göttingen mini-pigs from Ellegaard Göttingen Minipigs ApS and the principles of laboratory animal care are followed.
An acclimatization period of approximately 6-10 days was allowed before the animals entered the study. At start of the acclimatization period the mini-pigs were about 5 to 12 months old and in the weight range of 7-35 kg. The mini-pigs had two central venous catheters inserted which were used for blood sampling.
The studies were conducted in an animal room which was illuminated to give a cycle of approx 12 hours light and 12 hours darkness. The animals were housed individually.
The animals had free access to domestic quality drinking water during the study, but were typically fasted from overnight before dosing until approx 6-12 hours after dosing. The animals were weighed on arrival and on the days of dosing.
In the present studies the test substances were administered subcutaneously in approx 2 nmol/kg dose. The animals received a single subcutaneous injection. The subcutaneous injection was given on the right side of the neck, approximately 5-7 cm from the ear and 7-9 cm from the middle of the neck. The injections were given with a stopper on the needle, allowing approx 0.5 cm of the needle to be introduced. Each test substance was given to typically three but in some cases two or four animals.
A full plasma concentration-time profile, employing 12-16 sampling points, was obtained from each animal. In example blood samples were collected according to the following schedule:
After subcutaneous administration:
Predose (0), 0.5, 1, 2, 4, 6, 8, 12, 24, 48, 72, 96, 120, 168 and 240 hours after injection. In some cases also additional blood samples up to 288 hours post injection were taken.
At each sampling time, 0.5 to 2 ml of blood was drawn from each animal. The blood samples were taken via the central venous catheter.
The blood samples were collected into EDTA test tubes (i.e. Sarstedt Micro tube 1.3 mL K3E). Blood samples were kept on ice for max 20 min. before centrifugation. Plasma was separated using centrifugation (i.e. at 4° C., 10 min., 1500 G) and was immediately transferred to Micronic tubes. Approximately 200 μl plasma was transferred to each Micronic tube. The plasma was stored at −20° C. until assayed. The plasma samples were assayed for the content of amylin using an ELISA assay.
The plasma concentration-time profiles were analysed by a non-compartmental pharmacokinetic analysis (NCA) using WinNonlin Professional 5.0 (Pharsight Inc., Mountain View, Calif., USA). NCA was performed using the individual plasma concentration-time profiles from each animal. T½ is the terminal half-life=ln 2/λz and was determined from λz, the first order rate constant associated with the terminal (log-linear) portion of the curve, estimated by linear regression of time vs. log concentration.
ELISA Plasma Assay for Amylin Quantification
The human amylin ELISA is a monoclonal antibody-based sandwich immunoassay for determining amylin levels in human plasma. The capture antibody recognizes human amylin, amylin acid (deamidated amylin), a 1-20 fragment of amylin, but not reduced amylin.
The detection antibody binds to reduced or unreduced human amylin but not amylin acid and is complexed with streptavidin-alkaline phosphatase. The substrate, 4-methylumbelliferyl phosphate, is applied to the completed sandwich and the fluorescent signal, monitored at 355 nm/460 nm, is proportional to the amount of amylin present in the sample.

T1 sequence (O60896 24-148): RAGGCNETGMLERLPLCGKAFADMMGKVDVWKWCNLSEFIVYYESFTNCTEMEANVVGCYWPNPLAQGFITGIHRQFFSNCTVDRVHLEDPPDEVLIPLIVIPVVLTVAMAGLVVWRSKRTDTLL
T1 sequence (P30988 25-474): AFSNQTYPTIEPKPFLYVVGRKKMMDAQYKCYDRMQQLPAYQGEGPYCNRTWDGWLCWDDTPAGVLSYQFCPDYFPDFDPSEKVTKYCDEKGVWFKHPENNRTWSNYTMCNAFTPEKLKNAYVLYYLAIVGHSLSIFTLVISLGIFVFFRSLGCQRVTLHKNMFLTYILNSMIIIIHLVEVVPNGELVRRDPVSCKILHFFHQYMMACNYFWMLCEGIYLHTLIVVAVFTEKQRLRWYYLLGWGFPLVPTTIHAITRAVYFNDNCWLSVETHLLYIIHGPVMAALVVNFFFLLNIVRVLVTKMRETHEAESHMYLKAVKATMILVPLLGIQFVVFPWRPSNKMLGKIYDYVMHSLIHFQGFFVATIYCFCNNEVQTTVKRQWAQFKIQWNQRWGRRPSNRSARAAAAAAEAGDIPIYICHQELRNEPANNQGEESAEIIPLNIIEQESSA

| Compound | pEC50 [1] | half-life [2] [h] |
| --- | --- | --- |
| CC[C@H](C)[C@H](NC(=O)[C@@H]1CCCN1C(=O)CNC(=O)[C@H](Cc1ccccc1)NC(=O)[C@H](CC(N)=O)NC(=O)[C@H](CC(N)=O)NC(=O)[C@H](CO)NC(=O)[C@H](CO)NC(=O)[C@H](Cc1c[nH]cn1)NC(=O)[C@H](Cc1c[nH]cn1)NC(=O)[C@H](CC(C)C)NC(=O)[C@H](Cc1ccccc1)NC(=O)[C@H](CC(N)=O)NC(=O)[C@H](C)NC(=O)[C@H](CC(C)C)NC(=O)[C@H](CCCNC(=N)N)NC(=O)[C@H](CCC(N)=O)NC(=O)[C@@H](NC(=O)[C@H](C)NC(=O)[C@@H]1CSSC[C@H](NC(=O)[C@H](CCCCN)NC(=O)[C@H](CCCNC(=N)N)NC(=O)[C@H](Cc2c[nH]cn2)NC(=O)CC[C@H](NC(=O)CCCCCCCCCCCCCCCCCCC(=O)O)C(=O)O)C(=O)N[C@@H](CC(N)=O)C(=O)N[C@@H]([C@@H](C)O)C(=O)N[C@@H](C)C(=O)N[C@@H]([C@@H](C)O)C(=O)N1)[C@@H](C)O)C(=O)N[C@@H](CC(C)C)C(=O)N1CCC[C@H]1C(=O)N1CCC[C@H]1C(=O)N[C@H](C(=O)N[C@@H](CC(N)=O)C(=O)N[C@H](C(=O)NCC(=O)N[C@@H](CO)C(=O)N[C@@H](CC(N)=O)C(=O)N[C@H](C(=O)N[C@@H](Cc1ccc(O)cc1)C(N)=O)[C@@H](C)O)C(C)C)[C@@H](C)O [Example 40, N-alpha-[(S)-4-Carboxy-4-(19-carboxynonadecanoylamino)butyryl]-His-Arg-[His17]-pramlintide] ({C20 diacid-γGlu}-HRKCNTATCATQRLANFLHHSSNNFGPILPPTNVGSNTY-NH2; disulfide 4-9) | 10.00 | 31 |
| CC[C@H](C)[C@H](NC(=O)[C@@H]1CCCN1C(=O)CNC(=O)[C@H](Cc1ccccc1)NC(=O)[C@H](CC(N)=O)NC(=O)[C@H](CC(N)=O)NC(=O)[C@H](CO)NC(=O)[C@H](CO)NC(=O)[C@H](Cc1c[nH]cn1)NC(=O)[C@H](Cc1c[nH]cn1)NC(=O)[C@H](CC(C)C)NC(=O)[C@H](Cc1ccccc1)NC(=O)[C@H](CC(N)=O)NC(=O)[C@H](C)NC(=O)[C@H](CC(C)C)NC(=O)[C@H](CCCNC(=N)N)NC(=O)[C@H](CCC(N)=O)NC(=O)[C@@H](NC(=O)[C@H](C)NC(=O)[C@@H]1CSSC[C@H](NC(=O)[C@H](CCCNC(=N)N)NC(=O)[C@H](Cc2c[nH]cn2)NC(=O)[C@H](Cc2c[nH]cn2)NC(=O)COCCOCCNC(=O)CC[C@H](NC(=O)CCCCCCCCCCCCCCCCCCC(=O)O)C(=O)O)C(=O)N[C@@H](CC(N)=O)C(=O)N[C@@H]([C@@H](C)O)C(=O)N[C@@H](C)C(=O)N[C@@H]([C@@H](C)O)C(=O)N1)[C@@H](C)O)C(=O)N[C@@H](CC(C)C)C(=O)N1CCC[C@H]1C(=O)N1CCC[C@H]1C(=O)N[C@H](C(=O)N[C@@H](CC(N)=O)C(=O)N[C@H](C(=O)NCC(=O)N[C@@H](CO)C(=O)N[C@@H](CC(N)=O)C(=O)N[C@H](C(=O)N[C@@H](Cc1ccc(O)cc1)C(N)=O)[C@@H](C)O)C(C)C)[C@@H](C)O [Example 56, N-alpha-[2-(2-{2-[4-(S)-Carboxy-4-(19-carboxynonadecanoylamino)butyrylamino]ethoxy}ethoxy)acetyl]-His-His-[Arg1,His17]-pramlintide] ({C20 diacid-γGlu-AEEA}-HHRCNTATCATQRLANFLHHSSNNFGPILPPTNVGSNTY-NH2; disulfide 4-9) | 10.05 | 31 |
| CC[C@H](C)[C@H](NC(=O)[C@@H]1CCCN1C(=O)CNC(=O)[C@H](Cc1ccccc1)NC(=O)[C@H](CC(N)=O)NC(=O)[C@H](CC(N)=O)NC(=O)[C@H](CO)NC(=O)[C@H](CO)NC(=O)[C@H](Cc1c[nH]cn1)NC(=O)[C@H](CCCNC(=N)N)NC(=O)[C@H](CC(C)C)NC(=O)[C@H](Cc1ccccc1)NC(=O)[C@H](CC(N)=O)NC(=O)[C@H](C)NC(=O)[C@H](CC(C)C)NC(=O)[C@H](CCCNC(=N)N)NC(=O)[C@H](CCC(N)=O)NC(=O)[C@@H](NC(=O)[C@H](C)NC(=O)[C@@H]1CSSC[C@H](NC(=O)[C@H](CCCCN)NC(=O)[C@H](CCCNC(=N)N)NC(=O)COCCOCCNC(=O)CC[C@H](NC(=O)CCCCCCCCCCCCCCCCCCC(=O)O)C(=O)O)C(=O)N[C@@H](CC(N)=O)C(=O)N[C@@H]([C@@H](C)O)C(=O)N[C@@H](C)C(=O)N[C@@H]([C@@H](C)O)C(=O)N1)[C@@H](C)O)C(=O)N[C@@H](CC(C)C)C(=O)N1CCC[C@H]1C(=O)N1CCC[C@H]1C(=O)N[C@H](C(=O)N[C@@H](CC(N)=O)C(=O)N[C@H](C(=O)NCC(=O)N[C@@H](CO)C(=O)N[C@@H](CC(N)=O)C(=O)N[C@H](C(=O)N[C@@H](Cc1ccc(O)cc1)C(N)=O)[C@@H](C)O)C(C)C)[C@@H](C)O [Example 23, N-alpha-[2-(2-{2-[4-(S)-Carboxy-4-(19-carboxynonadecanoylamino)butyrylamino]ethoxy}ethoxy)acetyl]-Arg-[Arg17]-pramlintide] ({C20 diacid-γGlu-AEEA}-RKCNTATCATQRLANFLRHSSNNFGPILPPTNVGSNTY-NH2; disulfide 3-8) | 10.00 | 53 |
| CC[C@H](C)[C@H](NC(=O)[C@@H]1CCCN1C(=O)CNC(=O)[C@H](Cc1ccccc1)NC(=O)[C@H](CC(N)=O)NC(=O)[C@H](CC(N)=O)NC(=O)[C@H](CO)NC(=O)[C@H](CO)NC(=O)[C@H](Cc1c[nH]cn1)NC(=O)[C@H](Cc1c[nH]cn1)NC(=O)[C@H](CC(C)C)NC(=O)[C@H](Cc1ccccc1)NC(=O)[C@H](CC(N)=O)NC(=O)[C@H](C)NC(=O)[C@H](CC(C)C)NC(=O)[C@H](CCCNC(=N)N)NC(=O)[C@H](CCC(N)=O)NC(=O)[C@@H](NC(=O)[C@H](C)NC(=O)[C@@H]1CSSC[C@H](NC(=O)[C@H](Cc2c[nH]cn2)NC(=O)COCCOCCNC(=O)CC[C@H](NC(=O)CCCCCCCCCCCCCCCCCCC(=O)O)C(=O)O)C(=O)N[C@@H](CC(N)=O)C(=O)N[C@@H]([C@@H](C)O)C(=O)N[C@@H](C)C(=O)N[C@@H]([C@@H](C)O)C(=O)N1)[C@@H](C)O)C(=O)N[C@@H](CC(C)C)C(=O)N1CCC[C@H]1C(=O)N1CCC[C@H]1C(=O)N[C@H](C(=O)N[C@@H](CC(N)=O)C(=O)N[C@H](C(=O)NCC(=O)N[C@@H](CO)C(=O)N[C@@H](CC(N)=O)C(=O)N[C@H](C(=O)N[C@@H](Cc1ccc(O)cc1)C(N)=O)[C@@H](C)O)C(C)C)[C@@H](C)O [Example 37, N-alpha-[2-(2-{2-[4-(S)-Carboxy-4-(19-carboxynonadecanoylamino)butyrylamino]ethoxy}ethoxy)acetyl]-[His1,His17]-pramlintide] ({C20 diacid-γGlu-AEEA}-HCNTATCATQRLANFLHHSSNNFGPILPPTNVGSNTY-NH2; disulfide 2-7) | 10.05 | 66 |
